Data published in patent publication US8778881B2 (priority 2004, dated 2014).
pEC50: −log10 of the molar value. Where two headings read alike, the source gives them in different places. Bridge positions count the residues as written; N and C are the ends. Square brackets hold non-standard residues; d marks the D form. Peptide text beside a SMILES is read from it. Ala(2-furyl) = N[C@@H](Cc1ccco1)C(=O)O; Orn(iPr) = CC(C)NCCC[C@H](N)C(=O)O; Aad = N[C@@H](CCCC(=O)O)C(=O)O; Orn = NCCC[C@H](N)C(=O)O; Dab = NCC[C@H](N)C(=O)O

Target: T1, hV1a receptor (Homo sapiens, UniProt P37288)
T1 construct: expressed in transfected cells; host or cells: HEK-293 cells (transient transfection)
Test: hV1a receptor transcriptional reporter (luciferase) agonist assay in HEK-293 cells
Assay type: cell-based
Procedure: Agonist activity of compounds on the hV1a receptor was determined in a transcriptional reporter assay by transiently transfecting a hV1a receptor expression DNA into HEK-293 cells in concert with a reporter DNA containing intracellular calcium responsive promoter elements regulating expression of firefly luciferase. See Boss, V., Talpade, D. J., Murphy, T. J. J. Biol. Chem. 1996, May 3; 271(18), 10429-10432 for further guidance on this assay. […] To determine selectivity, compounds were tested in luciferase-based transcriptional reporter assays expressing the human oxytocin (hOT) receptor. Assays for other receptors (hV2, hV1b, rat V1a and rat V2) were also conducted.
The EC50 value given is the geometric mean expressed in nanomol/L (nM). Selectivity values are given as EC50 ratios.

T1 sequence (P37288 whole entry): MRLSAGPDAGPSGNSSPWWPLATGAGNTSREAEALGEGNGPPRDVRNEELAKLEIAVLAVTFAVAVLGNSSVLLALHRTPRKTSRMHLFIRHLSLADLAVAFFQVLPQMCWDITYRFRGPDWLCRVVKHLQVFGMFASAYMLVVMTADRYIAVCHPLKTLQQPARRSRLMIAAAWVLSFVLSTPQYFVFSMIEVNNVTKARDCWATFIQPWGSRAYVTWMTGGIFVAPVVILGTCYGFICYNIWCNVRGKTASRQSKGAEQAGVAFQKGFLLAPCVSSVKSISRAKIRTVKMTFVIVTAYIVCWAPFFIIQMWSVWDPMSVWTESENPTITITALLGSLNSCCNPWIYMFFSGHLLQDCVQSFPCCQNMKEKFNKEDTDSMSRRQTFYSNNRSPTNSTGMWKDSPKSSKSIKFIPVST

Compound `CCNC(=O)C[C@@H]1NC(=O)[C@H]([C@@H](C)CC)NC(=O)[C@H](Cc2ccccc2)NC(=O)[C@@H](N)CSSC[C@@H](C(=O)N2CCC[C@H]2C(=O)N[C@@H](CCN)C(=O)NCC(N)=O)NC(=O)[C@H](CC(N)=O)NC1=O` [Compound 4, [Phe^2,Asn (Et)^4, Dbu^8]VT] (H-CFID(NHEt)NCP[Dab]G-NH2; disulfide 1-6) has a pEC50 (geometric mean, HEK-293 cells transiently transfected, 5 hours exposure, at least three independent experiments, read-out: EC50 hV1a receptor) of 8.63.

`CC[C@H](C)[C@@H]1NC(=O)[C@H](Cc2ccccc2)NC(=O)[C@@H](N)CSSC[C@@H](C(=O)N2CCC[C@H]2C(=O)N[C@@H](CCCNC(C)C)C(=O)NCC(N)=O)NC(=O)[C@H](CC(N)=O)NC(=O)[C@H](CCCC(N)=O)NC1=O` [Compound 1, [Phe^2, Hgn^4, Orn (i-Pr)^8]VT] (H-CFI[Aad](NH2)NCP[Orn(iPr)]G-NH2; disulfide 1-6; N-terminus assumed) showed a pEC50 of 8.69.

Compound `CC[C@H](C)[C@@H]1NC(=O)[C@H](Cc2ccco2)NC(=O)[C@@H](N)CSSC[C@@H](C(=O)N2CCC[C@H]2C(=O)N[C@@H](CCCN)C(=O)NCC(N)=O)NC(=O)[C@H](CC(N)=O)NC(=O)[C@H](CCC(N)=O)NC1=O` [Compound 32] (H-C[Ala(2-furyl)]IQNCP[Orn]G-NH2; disulfide 1-6) has a pEC50 (read-out: EC50 hV1a receptor) of 8.58.
